Results taken from PubChem BioAssay AID2060885 (Molecular Pharmacology Branch, DTP, NCI, 2025).

System: NCI-H23 complex spheroids with HUVEC/MSC, viability
Experiment: Anticancer human tumor NCI-H23 cell line growth inhibition [RAS];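 note: spheroids exposed to compound for 7 days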;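 for viability, T/C: 100% = DMSO vehicle control viability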
Settings: for IC50: curve of first compound; for viability, T/C: stronger effect = lower value
How it was run: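 Tumour cells grown as complex spheroids with HUVEC endothelial cells and mesenchymal stem cells, treated with RAS pathway inhibitor combinations. Each agent spans half-log steps from near clinical Cmax, or 10 microM where Cmax is unknown.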

C=CC(=O)N1CCN(c2nc(OCC3CCCN3C)nc3c(F)c(-c4nc(N)cc(C)c4C(F)(F)F)c(Cl)cc23)C(C)C1 (configuration not stated) + C#Cc1c(F)ccc2cc(O)cc(-c3ncc4c(N5CC6CCC(C5)N6)nc(OCC56CCCN5CC(F)C6)nc4c3F)c12
IC50 (second compound 0.0316 µM): 11.5 nM
IC50 (second compound 0.1 µM): 19.2 nM
IC50 (second compound 0.316 µM): 24.2 nM
IC50 (second compound 1 µM): 13.8 nM
IC50 (second compound 3.16 µM): 11.3 nM
IC50 (second compound 10 µM): < 3.16 nM
viability, T/C (second compound 0.0316 µM, first compound 0.00316 µM): 72.4%
viability, T/C (second compound 0.0316 µM, first compound 0.01 µM): 52.6%
viability, T/C (second compound 0.0316 µM, first compound 0.0316 µM): 40.5%
viability, T/C (second compound 0.0316 µM, first compound 0.1 µM): 35.5%
viability, T/C (second compound 0.0316 µM, first compound 0.316 µM): 38%
viability, T/C (second compound 0.0316 µM, first compound 1 µM): 36.3%
viability, T/C (second compound 0.1 µM, first compound 0.00316 µM): 80.7%
viability, T/C (second compound 0.1 µM, first compound 0.01 µM): 58.2%
viability, T/C (second compound 0.1 µM, first compound 0.0316 µM): 45.3%
viability, T/C (second compound 0.1 µM, first compound 0.1 µM): 35.7%
viability, T/C (second compound 0.1 µM, first compound 0.316 µM): 30.3%
viability, T/C (second compound 0.1 µM, first compound 1 µM): 42.2%
viability, T/C (second compound 0.316 µM, first compound 0.00316 µM): 65.2%
viability, T/C (second compound 0.316 µM, first compound 0.01 µM): 61.3%
viability, T/C (second compound 0.316 µM, first compound 0.0316 µM): 46.5%
viability, T/C (second compound 0.316 µM, first compound 0.1 µM): 37.9%
viability, T/C (second compound 0.316 µM, first compound 0.316 µM): 35%
viability, T/C (second compound 0.316 µM, first compound 1 µM): 37.2%
viability, T/C (second compound 1 µM, first compound 0.00316 µM): 83.2%
viability, T/C (second compound 1 µM, first compound 0.01 µM): 54.5%
viability, T/C (second compound 1 µM, first compound 0.0316 µM): 37.7%
viability, T/C (second compound 1 µM, first compound 0.1 µM): 39.2%
viability, T/C (second compound 1 µM, first compound 0.316 µM): 39.5%
viability, T/C (second compound 1 µM, first compound 1 µM): 37.7%
viability, T/C (second compound 3.16 µM, first compound 0.00316 µM): 59.9%
viability, T/C (second compound 3.16 µM, first compound 0.01 µM): 55.9%
viability, T/C (second compound 3.16 µM, first compound 0.0316 µM): 38.4%
viability, T/C (second compound 3.16 µM, first compound 0.1 µM): 42.3%
viability, T/C (second compound 3.16 µM, first compound 0.316 µM): 39.8%
viability, T/C (second compound 3.16 µM, first compound 1 µM): 38.5%
viability, T/C (second compound 10 µM, first compound 0.00316 µM): 35.7%
viability, T/C (second compound 10 µM, first compound 0.01 µM): 39.6%
viability, T/C (second compound 10 µM, first compound 0.0316 µM): 42.4%
viability, T/C (second compound 10 µM, first compound 0.1 µM): 32.3%
viability, T/C (second compound 10 µM, first compound 0.316 µM): 30.4%
viability, T/C (second compound 10 µM, first compound 1 µM): 33.5%
